pEC50: −log10 of the molar value. Like-named read-outs stand apart in the source and are kept apart here.
Columns and labels:
[1] = test system: GLP-1 secretion from mouse secretin tumor (mSTC-1) intestinal enteroendocrine cells; test: ELISA primary assay: GLP-1 secretion from mSTC-1 cells, percent stimulation; type: cell-based; details: for mSTC-1 GLP1 Sec %Stim@2 μM: 2 μM test compound; for mSTC-1 GLP1 Sec %Stim@2 μM / mSTC-1 GLP1 Sec %Stim@20 μM: mSTC-1 cells, ELISA; for mSTC-1 GLP1 Sec %Stim@20 μM: 20 μM test compound; for activation at 20 µM: Mus musculus, read-out: mSTC-1 GLP1 Sec %Stim@20 μM
[2] = test system: GLP-1 secretion from mSTC-1 cells; test: Concentration-response curve; type: cell-based, mouse
[3] = test system: GLP-1 release from hNCI-H716 colorectal adenocarcinoma cell line; test: CRC EC50 in GLP-1 release from hNCI-H716 cells; type: cell-based; details: Homo sapiens, read-out: hNCI-H716 GLP1 Sec CRC EC50
in vitro [4] = details: mouse, mSTC-1 cells
in vitro [5] = details: human, hNCI-H716 colorectal adenocarcinoma cells
[6] = Mus musculus, read-out: mSTC-1 GLP1 Sec CRC EC50, mSTC-1 cells, concentration-response curve
[7] = read-out: mSTC-1 GLP1 Sec CRC EC50, mSTC-1 cells, concentration-response curve

SMILES	mSTC-1 GLP1 Sec %Stim@2 μM [1] [%]	mSTC-1 GLP1 Sec %Stim@20 μM [1] [%]	pEC50 [2, 6]	pEC50 [2, 7]	pEC50 [3]	pEC50 (in vitro [4])	pEC50 (in vitro [5])	activation at 20 µM [1] [%]
COc1ccc2c(c1)[C@@H](NC(=O)OCc1ccccc1)[C@H](C)[C@@H](c1ccccc1)N2 [Compound 5a, benzyl (2S,3R,4S)-6-methoxy-3-methyl-2-phenyl-1,2,3,4-tetrahydroquinolin-4-ylcarbamate]	2	68	> 5.00	5.28	< 4.40	< 4.40	< 4.40	–
COc1ccc2c(c1)[C@@H](NC(=O)OCc1ccccc1)[C@H](C)[C@@H](C(C)C)N2 [Compound 5b, Benzyl ((2R,3R,4S)-2-isopropyl-6-methoxy-3-methyl-1,2,3,4-tetrahydroquinolin-4-yl)carbamate]	0	98	4.97	–	< 4.40	< 4.40	< 4.40	–
CC[C@H]1Nc2ccc(NC(=O)OC(C)(C)C)cc2[C@@H](NC(=O)OCc2ccccc2)[C@@H]1C [Compound 5e, Benzyl tert-butyl ((2R,3R,4S)-2-ethyl-3-methyl-1,2,3,4-tetrahydroquinoline-4,6-diyl)dicarbamate]	–	–	–	–	–	–	–	0
COc1ccc2c(c1)[C@@H](NC(=O)OCc1ccccc1)[C@H](C)[C@@H](c1cccnc1)N2 [Compound 5f, Benzyl (2S,3R,4S)-6-methoxy-3-methyl-2-(pyridin-3-yl)-1,2,3,4-tetrahydroquinolin-4-ylcarbamate]	0	22	–	–	–	–	–	–
COc1ccc2c(c1)[C@@H](NC(=O)OCc1ccccc1)[C@H](C)[C@@H](c1ccccc1)N2Cc1cccc(F)c1 [Compound 6a, Benzyl(2S,3S,4S)-1-(3-fluorobenzyl)-6-methoxy-3-methyl-2phenyl-1,2,3,4-tetrahydroquinolin-4-ylcarbamate]	8	40	< 4.40	–	< 4.40	< 4.40	< 4.40	–
COc1ccc2c(c1)[C@@H](NC(=O)OCc1ccccc1)[C@H](C)[C@@H](c1ccccc1)N2Cc1ccccn1 [Compound 6c, Benzyl (2S,3S,4S)-6-methoxy-3-methyl-2-phenyl-1-(pyridin-2-ylmethyl)-1,2,3,4-tetrahydroquinolin-4-ylcarbamate]	–	–	–	–	–	–	–	0
COc1ccc2c(c1)[C@@H](NC(=O)OCc1ccccc1)[C@H](C)[C@@H](c1ccccc1)N2C(=O)NC(C)C [Compound 6g, Benzyl ((2S,3S,4S)-1-(isopropylcarbamoyl)-6-methoxy-3-methyl-2-phenyl-1,2,3,4-tetrahydroquinolin-4-yl)carbamate]	–	–	–	–	–	–	–	0
COc1ccc2c(c1)[C@@H](NCc1nccs1)[C@H](C)[C@@H](c1ccccc1)N2C(=O)NC(C)C [Compound 8d, (2S,3S,4S)-N-Isopropyl-6-methoxy-3-methyl-2-phenyl-4-((thiazol-2-ylmethyl)amino)-3,4-dihydroquinoline-1(2H)-carboxamide]	0	28	< 4.40	–	< 4.40	< 4.40	< 4.40	–
COc1ccc2c(c1)[C@@H](NCc1ccccn1)[C@H](C)[C@@H](c1ccccc1)N2C(=O)NC(C)C [Compound 8e, (2S,3S,4S)-N-isopropyl-6-methoxy-3-methyl-2-phenyl-4-((pyridin-2-ylmethyl)amino)-3,4-dihydroquinoline-1(2H)-carboxamide]	–	–	–	–	–	–	–	0
COc1ccc2c(c1)[C@@H](NC(=O)c1c(C)noc1C)[C@H](C)[C@@H](c1ccccc1)N2C(=O)NC(C)C [Compound 8f, N-((2S,3S,4S)-1-(Isopropylcarbamoyl)-6-methoxy-3-methyl-2-phenyl-1,2,3,4-tetrahydroquinolin-4-yl)-3,5-dimethylisoxazole-4-carboxamide]	–	–	–	–	–	–	–	0
COc1ccc2c(c1)[C@@H](NC(C)=O)[C@H](C)[C@@H](c1ccccc1)N2C(=O)Nc1ccc(C(F)(F)F)cc1 [Compound 8i, (2S,3S,4S)-4-Acetamido-6-methoxy-3-methyl-2-phenyl-N-(4-(trifluoromethyl)phenyl)-3,4-dihydroquinoline-1(2H)-carboxamide]	–	–	–	–	–	–	–	0
COc1ccc2c(c1)[C@@H](NC(=O)c1c(C)noc1C)[C@H](C)[C@@H](c1ccccc1)N2Cc1cccc(F)c1 [Compound 8j, N-((2S,3S,4S)-1-(3-Fluorobenzyl)-6-methoxy-3-methyl-2-phenyl-1,2,3,4-tetrahydroquinolin-4-yl)-3,5-dimethylisoxazole-4-carboxamide]	–	–	–	–	–	–	–	0
COc1ccc2c(c1)[C@@H](NS(C)(=O)=O)[C@H](C)[C@@H](c1ccccc1)N2Cc1cccc(F)c1 [Compound 8k, N-((2S,3R,4S)-1-(3-Fluorobenzyl)-6-methoxy-3-methyl-2-phenyl-1,2,3,4-tetrahydroquinolin-4-yl)methanesulfonamide]	0	53	> 5.00	5.08	< 4.40	< 4.40	< 4.40	–
CC[C@H]1Nc2ccc(OC)cc2[C@@H](NS(C)(=O)=O)[C@@H]1C [Compound 8l, N-((2R,3R,4S)-2-Ethyl-6-methoxy-3-methyl-1,2,3,4-tetrahydroquinolin-4-yl)methanesulfonamide]	–	–	–	–	–	–	–	0
COc1ccc2c(c1)[C@@H](NS(C)(=O)=O)[C@H](C)[C@@H](C(C)C)N2 [Compound 8m, N-((2R,3R,4S)-2-Isopropyl-6-methoxy-3-methyl-1,2,3,4-tetrahydroquinolin-4-yl)methanesulfonamide]	–	–	–	–	–	–	–	0
CC[C@H]1Nc2ccc(OC)cc2[C@@H](NCc2nccs2)[C@@H]1C [Compound 8n, (2R,3R,4S)-2-Ethyl-6-methoxy-3-methyl-N-(thiazol-2-ylmethyl)-1,2,3,4-tetrahydroquinolin-4-amine]	0	49	4.58	–	< 4.40	< 4.40	< 4.40	–
COc1ccc2c(c1)[C@@H](NCc1nccs1)[C@H](C)[C@@H](C(C)C)N2 [Compound 8o, (2R,3R,4S)-2-Isopropyl-6-methoxy-3-methyl-N-(thiazol-2-ylmethyl)-1,2,3,4-tetrahydroquinolin-4-amine]	0	61	4.77	–	< 4.40	< 4.40	< 4.40	–
COc1ccc2c(c1)[C@@H](N(Cc1nccs1)Cc1nccs1)[C@H](C)[C@@H](C(C)C)N2 [Compound 8p, (2R,3R,4S)-2-Isopropyl-6-methoxy-3-methyl-N,N-bis(thiazol-2-ylmethyl)-1,2,3,4-tetrahydroquinolin-4-amine]	0	80	4.66	–	< 4.40	< 4.40	< 4.40	–
CC[C@H]1Nc2ccc(NC(C)=O)cc2[C@@H](NS(C)(=O)=O)[C@@H]1C [Compound 8q, N-((2R,3R,4S)-2-Ethyl-3-methyl-4-(methylsulfonamido)-1,2,3,4-tetrahydroquinolin-6-yl)acetamide]	0	18	–	–	–	–	–	–
C[C@@H]1[C@@H](c2ccccc2)Nc2ccc(-c3ccccc3)cc2[C@H]1NC(=O)OCc1ccccc1 [Compound 9, Benzyl (2S,3R,4S)-3-methyl-2,6-diphenyl-1,2,3,4-tetrahydroquinolin-4-ylcarbamate]	82	99	5.66	–	< 4.40	< 4.40	< 4.40	–

Reference: publication PMC8837726 (Chirality, 2021)
